Source: ChEMBL document CHEMBL3804805, “Cathepsin B Inhibitors: Combining Dipeptide Nitriles with an Occluding Loop Recognition Element by Click Chemistry” (ACS Med Chem Lett, 2016)

How the values were obtained:
Cathepsin B [1] = molecular target: T1, Cathepsin B (Homo sapiens, UniProt P07858); assay: Inhibition of human liver cathepsin B using Cbz-Arg-Arg-pNA as substrate at pH 6 incubated for 30 mins measured for 20 mins by photometrical analysis
Cathepsin S = Cathepsin S (Homo sapiens, UniProt P25774); assay: Inhibition of human recombinant cathepsin S using Cbz-Phe-Arg-AMC as substrate incubated for 60 mins measured for 20 mins by spectrofluorometrical analysis
Cathepsin K = molecular target: T2, Cathepsin K (Homo sapiens, UniProt P43235); assay: Inhibition of human recombinant cathepsin K using Cbz-Leu-Arg-AMC as substrate incubated for 30 mins measured for 20 mins by spectrofluorometrical analysis
T2 sequence (P43235 whole entry): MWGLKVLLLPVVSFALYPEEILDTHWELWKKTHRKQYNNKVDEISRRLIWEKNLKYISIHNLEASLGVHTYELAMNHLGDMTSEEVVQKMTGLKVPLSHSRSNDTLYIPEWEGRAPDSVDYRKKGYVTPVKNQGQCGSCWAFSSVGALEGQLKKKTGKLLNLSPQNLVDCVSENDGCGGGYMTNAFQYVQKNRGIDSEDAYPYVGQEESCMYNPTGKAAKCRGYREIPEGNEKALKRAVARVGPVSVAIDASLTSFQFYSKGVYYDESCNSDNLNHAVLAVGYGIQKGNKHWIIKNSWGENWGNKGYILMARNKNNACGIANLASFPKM

Procathepsin L = Procathepsin L (Homo sapiens, UniProt P07711); assay: Inhibition of human liver cathepsin L using Cbz-Phe-Arg-pNA as substrate incubated for 30 mins measured for 20 mins by photometrical analysis
Cathepsin B [2] = molecular target: T1, Cathepsin B; assay: Inhibition of human liver cathepsin B using Abz-Gly-Ile-Val-Arg-Ala-Lys(Dnp)-OH as substrate at pH 4.5 incubated for 30 mins measured for 10 mins by […]
Cathepsin B [3] = molecular target: T1, Cathepsin B; assay: Inhibition of human liver cathepsin B using Cbz-Arg-Arg-pNA as substrate at pH 4.5 incubated for 30 mins measured for 20 mins by photometrical analysis
Cathepsin B [4] = molecular target: T1, Cathepsin B; assay: Inhibition of human cathepsin B

Chain of Procathepsin L (P07711 whole entry): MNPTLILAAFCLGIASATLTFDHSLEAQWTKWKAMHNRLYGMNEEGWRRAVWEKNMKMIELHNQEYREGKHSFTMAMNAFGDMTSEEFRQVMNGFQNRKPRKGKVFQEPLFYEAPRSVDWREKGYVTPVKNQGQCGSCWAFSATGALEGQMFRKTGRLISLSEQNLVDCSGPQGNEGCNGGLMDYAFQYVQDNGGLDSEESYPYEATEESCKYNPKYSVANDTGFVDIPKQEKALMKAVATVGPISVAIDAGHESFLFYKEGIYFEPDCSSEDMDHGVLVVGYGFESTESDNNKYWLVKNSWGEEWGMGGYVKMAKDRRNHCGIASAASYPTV
Chain of Cathepsin S (P25774 whole entry): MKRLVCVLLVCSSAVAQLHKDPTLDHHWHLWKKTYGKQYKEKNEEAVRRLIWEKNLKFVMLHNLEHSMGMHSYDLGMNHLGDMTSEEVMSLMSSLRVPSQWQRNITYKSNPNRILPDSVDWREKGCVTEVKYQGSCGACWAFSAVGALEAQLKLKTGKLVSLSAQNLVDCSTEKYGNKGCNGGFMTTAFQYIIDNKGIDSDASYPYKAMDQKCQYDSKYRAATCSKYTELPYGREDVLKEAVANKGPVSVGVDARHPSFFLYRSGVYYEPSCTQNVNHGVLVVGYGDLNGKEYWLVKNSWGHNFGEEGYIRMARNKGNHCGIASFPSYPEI

SMILES | Ki (Cathepsin B [1]) [nM] | further results
CC(C)C[C@H](NC(=O)Nc1ccc(-c2noc(-c3cccs3)n2)cc1)C(=O)NCC#N | > 330 | –
CC(C)C[C@H](NC(=O)c1ccc(-c2noc(-c3cccs3)n2)cc1)C(=O)NCC#N | > 330 | –
CC(C)(C)OC(=O)N[C@@H](COCc1ccccc1)C(=O)NCC#N | > 330 | –
CC(=O)N[C@@H](Cc1ccccc1)C(=O)NCC#N | > 330 | –
CC(C)(C)OC(=O)N[C@@H](CCc1ccccc1)C(=O)NCC#N | > 330 | –
CC(C)[C@H](NC(=O)OC(C)(C)C)C(=O)NCC#N | > 330 | –
CC(C)(C)OC(=O)NCC(=O)NCC#N | > 330 | –
N#CCNC(=O)CNC(=O)OCc1ccccc1 | > 330 | –
CC(C)(C)OC(=O)N1CCC[C@H]1C(=O)NCC#N | > 330 | –
N#CCNC(=O)C1(NC(=O)OCc2ccccc2)CCCCC1 | > 330 | –
CC(C)C[C@H](NC(=O)OC(C)(C)C)C(=O)NCC#N | 94000 | –
CC(C)C[C@H](NC(=O)OCc1ccccc1)C(=O)NCC#N | 32000 | –
N#CCNC(=O)[C@H](Cc1ccccc1)NC(=O)c1ccc(-c2ccccc2)cc1 | 3920 | –
CC(C)(C)OC(=O)N[C@@H](Cc1cccc2ccccc12)C(=O)NCC#N | > 330 | –
CC(C)(C)OC(=O)N[C@@H](Cc1ccccc1)C(=O)NCC#N | 37000 | –
CC(C)(C)OC(=O)N[C@@H](Cc1ccccc1Br)C(=O)NCC#N | > 330 | –
CC(C)(C)OC(=O)N[C@@H](Cc1ccc2ccccc2c1)C(=O)NCC#N | 3460 | –
CC(C)(C)OC(=O)N[C@@H](Cc1ccc(-c2ccccc2)cc1)C(=O)NCC#N | > 330 | –
CC[C@H](NC(=O)OC(C)(C)C)C(=O)NCC#N | > 330 | –
CC(C)(C)OC(=O)N[C@H](C(=O)NCC#N)c1ccccc1 | > 330 | –
CC(C)(C)OC(=O)N[C@@H](Cc1cccs1)C(=O)NCC#N | > 330 | –
C[C@H](NC(=O)OC(C)(C)C)C(=O)NCC#N | > 330 | –
CC(C)(C)OC(=O)N[C@@H](Cc1ccc(Br)cc1)C(=O)NCC#N | > 330 | –

SMILES | Ki (Cathepsin B [1]) [nM] | further results
CN(CC#N)C(=O)[C@H](Cc1ccccc1)NC(=O)OC(C)(C)C | > 330 | –
CC(C)(C)OC(=O)N[C@H](Cc1ccccc1)C(=O)NCC#N | > 330 | –
CC(C)(C)OC(=O)N[C@@H](Cc1ccc(F)cc1)C(=O)NCC#N | > 330 | –
N#CCNC(=O)[C@H](Cc1ccccc1)NC(=O)OCc1ccccc1 | > 330 | –
CC(C)(C)OC(=O)N[C@@H](CC1CCCCC1)C(=O)NCC#N | > 330 | –
CC(C)(C)OC(=O)N[C@@H](CC1CC1)C(=O)NCC#N | > 330 | –
N#CCNC(=O)[C@H](Cc1ccccc1)NC(=O)c1ccccc1 | > 330 | –
CC(C)(C)OC(=O)N[C@@H](Cc1cccc(Br)c1)C(=O)NCC#N | 5170 | –
CC(C)(C)OC(=O)N[C@@H](Cc1ccc(O)cc1)C(=O)NCC#N | > 330 | –
CSCC[C@@H](C#N)NC(=O)C(CC(C)C)NC(=O)c1ccc(-c2ccccc2)cc1 (some centres not stated) | > 330 | –
N#C[C@H](COCc1cn(CCC(=O)O)nn1)NC(=O)[C@H](Cc1ccccc1)NC(=O)OCc1ccccc1 | 33000 | Ki (Cathepsin S): 2250 nM; Ki (Cathepsin K): 370 nM; Ki (Procathepsin L): 1270 nM
N#CCNC(=O)[C@H](Cc1cccc(-c2ccccc2)c1)NC(=O)c1ccc(-c2ccccc2)cc1 | 1230 | Ki (Cathepsin S): 2660 nM; Ki (Cathepsin K): 24.5 nM; Ki (Procathepsin L): 707 nM
CC(C)(C)OC(=O)N[C@@H](Cc1ccccc1)C(=O)N[C@H](C#N)CC#N | > 330 | –
N#C[C@H](CCOCc1cn(CCC(=O)O)nn1)NC(=O)[C@H](Cc1ccccc1)NC(=O)OCc1ccccc1 | 196000 | Ki (Cathepsin S): 490 nM; Ki (Cathepsin K): 370 nM; Ki (Procathepsin L): 1920 nM
N#C[C@H](CCOCc1cn(CC(=O)O)nn1)NC(=O)[C@H](Cc1ccccc1)NC(=O)OCc1ccccc1 | 101000 | Ki (Cathepsin S): 1000 nM; Ki (Cathepsin K): 580 nM; Ki (Procathepsin L): 2160 nM
N#C[C@H](COCc1cn(CC(=O)O)nn1)NC(=O)[C@H](Cc1cccc(Br)c1)NC(=O)c1ccc(-c2ccccc2)cc1 | 41.3 | Ki (Cathepsin B [2]): 19.2 nM; Ki (Cathepsin B [3]): 27.3 nM; Ki (Cathepsin S): 352 nM; Ki (Cathepsin K): 335 nM; Ki (Procathepsin L): 6300 nM
N#CCNC(=O)[C@@H](N)Cc1ccccc1 | > 330 | –
CSCC[C@@H](C#N)NC(=O)[C@H](Cc1ccccc1)NC(=O)OC(C)(C)C | > 330 | –
CSCC[C@@H](C#N)NC(=O)[C@H](CC(C)C)NC(=O)c1ccc(-c2ccccc2)cc1 | 330 | –
CC(C)C[C@@H](C#N)NC(=O)[C@H](C)NC(=O)CNC(=O)OCc1ccccc1 | > 330 | –
N#C[C@H](Cc1cn(CCC(=O)O)nn1)NC(=O)[C@H](Cc1cccc(Br)c1)NC(=O)c1ccc(-c2ccccc2)cc1 | – | Ki (Cathepsin S): 1800 nM; Ki (Cathepsin K): 226 nM; Ki (Procathepsin L): 6980 nM
COc1ccc(C[C@H](NC(=O)OCc2ccccc2)C(=O)NCC#N)cc1 | > 330 | –
CSCC[C@@H](C#N)NC(=O)[C@H](CC1CCCCC1)NC(=O)OC(C)(C)C | > 330 | –

SMILES | Ki (Cathepsin B [1]) [nM] | further results
N#C[C@H](Cc1cn(CC(=O)O)nn1)NC(=O)[C@H](Cc1cccc(Br)c1)NC(=O)c1ccc(-c2ccccc2)cc1 | 11200 | Ki (Cathepsin B [2]): 368 nM; Ki (Cathepsin B [3]): 707 nM; Ki (Cathepsin S): 4230 nM; Ki (Cathepsin K): 535 nM; Ki (Procathepsin L): 11700 nM
CC(C)(C)OC(=O)N[C@@H](Cc1cccc(-c2ccccc2)c1)C(=O)NCC#N | 5350 | –
N#CCNC(=O)[C@H](Cc1ccc(O)cc1)NC(=O)OCc1ccccc1 | > 330 | –
N#CCNC(=O)[C@H](Cc1cccc(Br)c1)NC(=O)c1ccc(-c2ccccc2)cc1 | 120 | Ki (Cathepsin B [2]): 220 nM; Ki (Cathepsin B [3]): 205 nM; Ki (Cathepsin S): 178 nM; Ki (Cathepsin K): 930 nM; Ki (Procathepsin L): 609 nM
N#CCNC(=O)C1(NC(=O)c2ccc(-c3noc(-c4cccs4)n3)cc2)CCCCC1 | > 330 | –
N#CCNC(=O)[C@H](Cc1ccc2ccccc2c1)NC(=O)c1ccc(-c2ccccc2)cc1 | 126 | Ki (Cathepsin S): 180 nM; Ki (Cathepsin K): 4500 nM; Ki (Procathepsin L): 4300 nM
CC(C)C[C@H](NC(=O)c1ccc(-c2ccccc2)cc1)C(=O)NCC#N | – | Ki (Cathepsin B [4]): 1790 nM
COC(=O)Cn1cc(COC[C@@H](C#N)NC(=O)[C@H](Cc2cccc(Br)c2)NC(=O)c2ccc(-c3ccccc3)cc2)nn1 | 26 | Ki (Cathepsin B [2]): 131 nM; Ki (Cathepsin B [3]): 136 nM; Ki (Cathepsin S): 186 nM; Ki (Cathepsin K): 67.6 nM; Ki (Procathepsin L): 431 nM
CSCC[C@@H](C#N)NC(=O)[C@H](CC(C)C)NC(=O)OC(C)(C)C | > 330 | –
N#CCNC(=O)[C@H](CC1CCCCC1)NC(=O)c1ccc(-c2noc(-c3cccs3)n2)cc1 | > 330 | –
CCC(C)[C@H](NC(=O)OC(C)(C)C)C(=O)NCC#N (some centres not stated) | > 330 | –
N#CCNC(=O)[C@H](CC1CCCCC1)NC(=O)c1ccc(-c2ccccc2)cc1 | > 330 | –
C[C@@H](C#N)N(C)C(=O)[C@H](Cc1ccccc1)NC(=O)OC(C)(C)C | > 330 | –
N#C[C@H](COCc1cn(CC(=O)O)nn1)NC(=O)[C@H](Cc1ccccc1)NC(=O)OCc1ccccc1 | 24000 | Ki (Cathepsin S): 4480 nM; Ki (Cathepsin K): 310 nM; Ki (Procathepsin L): 1050 nM
CN(CC#N)C(=O)[C@H](Cc1ccccc1)NC(=O)OCc1ccccc1 | > 330 | –
CC(C)(C)OC(=O)N[C@@H](Cc1c[nH]c2ccccc12)C(=O)NCC#N | > 330 | –
CSCC[C@H](NC(=O)OC(C)(C)C)C(=O)NCC#N | > 330 | –
CCCC[C@H](NC(=O)OC(C)(C)C)C(=O)NCC#N | > 330 | –
CCC[C@H](NC(=O)OC(C)(C)C)C(=O)NCC#N | > 330 | –
CC(C)(C)OC(=O)N[C@@H](Cc1ccco1)C(=O)NCC#N | > 330 | –
C[C@@H](C#N)NC(=O)[C@H](Cc1ccccc1)NC(=O)OCc1ccccc1 | > 330 | –
